In patent US8987249B2, “Substituted 2-Aza-bicyclo[2.2.1]heptane-3-carboxylic acid (benzyl-cyano-methyl)-amides inhibitors of Cathepsin C” (Boehringer Ingelheim International GmbH, priority 2013, dated 2015):
pIC50: −log10 of the molar value.

How the values were obtained:
[1] = molecular target: recombinant human DPPI (Cathepsin C) (Homo sapiens (Human), UniProt P53634); assay: Inhibition of human DPPI (Cathepsin C); format: biochemical; settings: substrate Gly-Arg-AMC
Procedure, shortened: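 Recombinant human DPPI in MES buffer pH 6.0 (5 mM DTT, 0.1% BSA); fluorogenic substrate at 50 μM final, 30 min at room temperature, stopped with 1 μM Gly-Phe-DMK. Background-subtracted fluorescence expressed as percent of vehicle control; IC50 derived.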

[2] = Determination of metabolic stability with human liver microsomes; settings: human, pooled human liver microsomes, pH 7.6

Chain of recombinant human DPPI (Cathepsin C) (P53634 231-394): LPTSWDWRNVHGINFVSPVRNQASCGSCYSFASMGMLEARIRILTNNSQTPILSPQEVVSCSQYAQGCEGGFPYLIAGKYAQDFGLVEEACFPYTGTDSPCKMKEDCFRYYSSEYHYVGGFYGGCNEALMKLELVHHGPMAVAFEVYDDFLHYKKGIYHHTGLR
Chain of recombinant human DPPI (Cathepsin C) (P53634 395-463): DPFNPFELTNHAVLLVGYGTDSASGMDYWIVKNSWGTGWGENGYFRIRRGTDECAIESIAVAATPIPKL
Chain of recombinant human DPPI (Cathepsin C) (P53634 25-134): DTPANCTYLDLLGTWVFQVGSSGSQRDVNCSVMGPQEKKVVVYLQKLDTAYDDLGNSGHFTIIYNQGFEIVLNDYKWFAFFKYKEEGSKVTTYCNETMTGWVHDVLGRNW

SMILES | pIC50 [1] | half-life at 1 μM [2] [h]
N#CC(Cc1ccc2c(c1)c(=O)[nH]c1ccccc12)NC(=O)[C@H]1N[C@@H]2CC[C@H]1C2 (stereo partly drawn) [Example 9, (1S,2S,4R)—N-[1-cyano-2-(6-oxo-5H-phenanthridin-8-yl)ethyl]-3-azabicyclo[2.2.1]heptane-2-carboxamide] | 8.02 | > 2
N#Cc1ccc(-c2ccc(C[C@@H](C#N)NC(=O)[C@H]3N[C@@H]4CC[C@H]3C4)c(F)c2)o1 [Example 162] | 8.70 | > 2.17
N#C[C@H](Cc1ccc(-c2cnc3n2CCC3)cc1F)NC(=O)[C@H]1N[C@@H]2CC[C@H]1C2 [Example 221] | 8.43 | > 2.17
N#C[C@H](Cc1ccc(-c2ccc(=O)[nH]c2)cc1F)NC(=O)[C@H]1N[C@@H]2CC[C@H]1C2 [Example 258] | 8.10 | > 2.17
CS(=O)(=O)c1ccn(-c2ccc(C[C@@H](C#N)NC(=O)[C@H]3N[C@@H]4CC[C@H]3C4)c(F)c2)c(=O)c1 [Example 266] | 7.36 | > 2.17
CCNC(=O)c1ccc(-c2ccc(C[C@@H](C#N)NC(=O)[C@H]3N[C@@H]4CC[C@H]3C4)c(F)c2)cc1 [Example 184] | 8.06 | > 2.17
N#C[C@H](Cc1ccc(N2CCOCC2)cc1F)NC(=O)[C@H]1N[C@@H]2CC[C@H]1C2 [Example 205] | 7.59 | > 2.17
Cn1c(=O)c2cc(CC(C#N)NC(=O)[C@H]3N[C@@H]4CC[C@H]3C4)ccc2c2ccc(Cl)cc21 (stereo partly drawn) [Example 305, (1S,2S,4R)—N-[2-(3-chloro-5-methyl-6-oxo-phenanthridin-8-yl)-1-cyano-ethyl]-3-azabicyclo[2.2.1]heptane-2-carboxamide] | 8.16 | 1.52
COCCN1C(C)CN(c2ccc(C[C@@H](C#N)NC(=O)[C@H]3N[C@@H]4CC[C@H]3C4)c(F)c2)CC1C (stereo partly shown) [Example 191] | 7.95 | 1.52
CN1CCN(C(=O)c2ccc(-c3ccc(C[C@@H](C#N)NC(=O)[C@H]4N[C@@H]5CC[C@H]4C5)c(F)c3)o2)CC1 [Example 289] | 8.60 | 1.83
N#C[C@H](Cc1ccc(OCCN2CCNCC2)cc1F)NC(=O)[C@H]1N[C@@H]2CC[C@H]1C2 [Example 189] | 7.98 | > 2.17
CC1CN(c2ccc(C[C@@H](C#N)NC(=O)[C@H]3N[C@@H]4CC[C@H]3C4)c(F)c2)C(C)CN1C (stereo partly shown) [Example 196] | 7.82 | > 2.17
N#Cc1ccc2c(c1)[nH]c(=O)c1cc(CC(C#N)NC(=O)[C@H]3N[C@@H]4CC[C@H]3C4)c(F)cc12 (stereo partly shown) [Example 292] | 9.05 | 1.57
N#CC(Cc1ccc2c(c1)c(=O)[nH]c1c(F)cc(C(N)=O)cc12)NC(=O)[C@H]1N[C@@H]2CC[C@H]1C2 (stereo partly shown) [Example 291] | 8.23 | > 2.17
CS(=O)(=O)c1cc(-c2ccc(C[C@@H](C#N)NC(=O)[C@H]3N[C@@H]4CC[C@H]3C4)c(F)c2F)ccc1C#N [Example 183] | 8.06 | > 2.17
CC1(C)OC(=O)c2cc(-c3ccc(C[C@@H](C#N)NC(=O)[C@H]4N[C@@H]5CC[C@H]4C5)c(F)c3)ccc21 [Example 166] | 8.48 | 1.57
N#C[C@H](Cc1ccc(N2CCC3C(=O)NCCC3C2)cc1F)NC(=O)[C@H]1N[C@@H]2CC[C@H]1C2 (stereo partly shown) [Example 248] | 7.74 | > 2.17
CN1CCN(c2ccc(C[C@@H](C#N)NC(=O)[C@H]3N[C@@H]4CC[C@H]3C4)c(F)c2)C(=O)C1 [Example 125] | 6.69 | > 2.17
N#C[C@H](Cc1ccc(-c2cnc3cnccn23)cc1F)NC(=O)[C@H]1N[C@@H]2CC[C@H]1C2 [Example 194] | 7.88 | 1.42
CN(C)CCCN1C(=O)Cc2ccc(-c3ccc(C[C@@H](C#N)NC(=O)[C@H]4N[C@@H]5CC[C@H]4C5)c(F)c3)cc21 [Example 277] | 8.52 | > 2.17

Other lines, results leading:

pIC50 [1] | half-life at 1 μM [2] [h] | SMILES
8.47 | > 2.17 | N#C[C@H](Cc1ccc(N2CC3(CNC3)C2)cc1F)NC(=O)[C@H]1N[C@@H]2CC[C@H]1C2 [Example 327]
8.14 | > 2.17 | N#Cc1cc(F)c2[nH]c(=O)c3cc(CC(C#N)NC(=O)[C@H]4N[C@@H]5CC[C@H]4C5)ccc3c2c1 (stereo partly shown) [Example 307]
8.12 | > 2.17 | N#CC(Cc1ccc2c(c1)c(=O)[nH]c1c(C(=O)NC3CC3)cccc12)NC(=O)[C@H]1N[C@@H]2CC[C@H]1C2 (stereo partly shown) [Example 341]
7.85 | > 2.17 | N#CC(Cc1ccc2c(c1)c(=O)[nH]c1ccc(N)cc12)NC(=O)[C@H]1N[C@@H]2CC[C@H]1C2 (stereo partly shown) [Example 314]
7.87 | > 2.17 | CS(=O)(=O)c1ccc2[nH]c(=O)c3cc(CC(C#N)NC(=O)[C@H]4N[C@@H]5CC[C@H]4C5)ccc3c2c1 (stereo partly shown) [Example 313]
8.89 | > 2.17 | CN(C)CCn1cc(-c2ccc(C[C@@H](C#N)NC(=O)[C@H]3N[C@@H]4CC[C@H]3C4)c(F)c2)ccc1=O [Example 342]
8.08 | > 2.17 | N#CC(Cc1ccc2c(c1)c(=O)[nH]c1c(F)cccc12)NC(=O)[C@H]1N[C@@H]2CC[C@H]1C2 (stereo partly shown) [Example 308]
8.03 | > 2.17 | N#CC(Cc1ccc2c(c1)c(=O)[nH]c1c(F)cc(F)cc12)NC(=O)[C@H]1N[C@@H]2CC[C@H]1C2 (stereo partly shown) [Example 310]
8.07 | > 2.17 | CNc1nc2cc(-c3ccc(C[C@@H](C#N)NC(=O)[C@H]4N[C@@H]5CC[C@H]4C5)c(F)c3)ccc2[nH]1 [Example 347]
